Reference: patent publication US20230143604A1, “QW DOSING OF GIP RECEPTOR AGONIST PEPTIDE COMPOUNDS AND USES THEREOF” (TAKEDA PHARMACEUTICAL COMPANY LIMITED, priority 2020, published 2023)
Starred links: 1 amine or outer side, 2 acyl side, 3 side chain; linkers in the order of their positions; H or OH if unused. Positions of bridges follow the written chain, without caps; N, C: chain ends. Non-standard residues stand in square brackets, D forms with d. Residues, ends and D or L forms follow the SMILES beside them. Groups on a side chain read outwards from the residue. Chains are numbered I, II in the order given. *: point of attachment. C20 diacid = O=C(O)CCCCCCCCCCCCCCCCCCC(=O)*; C18 diacid = O=C(O)CCCCCCCCCCCCCCCCC(=O)*; C17 diacid = O=C(O)CCCCCCCCCCCCCCCC(=O)*; γGlu = O=C(O)[C@H](CCC(=O)[*:2])N[*:1]; NMeY = CN[C@@H](Cc1ccc(O)cc1)C(=O)O; AEEA = NCCOCCOCC(=O)O; Aib = CC(C)(N)C(=O)O

Experiment: Solubility in phosphate buffer pH 7.4
How it was run: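 Solubility at pH 7.4 determined by stepwise addition of 200 mM phosphate buffer in 100 μL increments to 3 mg peptide, mixing briefly each time, until no insoluble material remained, then measured by liquid chromatography.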

| SMILES | solubility (pH 7.4, aqueous buffer, pH 7.4 Phosphate Buffer - Solubility, 200 mM Phosphate buffer pH 7.4) [mg/mL] | solubility (pH 7.4, solubility in phosphate buffer at pH 7.4, 200 mM phosphate buffer pH 7.4) [mg/mL] | solubility (pH 7.4) [mg/mL] | solubility (pH 7.4, aqueous buffer) [mg/mL] |
| --- | --- | --- | --- | --- |
| CC[C@H](C)[C@H](NC(=O)[C@H](Cc1ccccc1)NC(=O)[C@@H](NC(=O)CNC(=O)[C@H](CCC(=O)O)NC(=O)C(C)(C)NC(=O)[C@H](Cc1ccc(O)cc1)NC)[C@@H](C)O)C(=O)N[C@@H](CO)C(=O)N[C@@H](CC(=O)O)C(=O)N[C@@H](Cc1ccc(O)cc1)C(=O)N[C@@H](CO)C(=O)N[C@H](C(=O)NC(C)(C)C(=O)N[C@@H](CC(C)C)C(=O)N[C@@H](CC(=O)O)C(=O)N[C@@H](CCCNC(=N)N)C(=O)NC(C)(C)C(=O)N[C@@H](C)C(=O)N[C@@H](CCC(N)=O)C(=O)NC(C)(C)C(=O)N[C@@H](CCCCNC(=O)COCCOCCNC(=O)COCCOCCNC(=O)CC[C@H](NC(=O)CC[C@H](NC(=O)CCCCCCCCCCCCCCCCCCC(=O)O)C(=O)O)C(=O)O)C(=O)N[C@@H](Cc1ccccc1)C(=O)N[C@H](C(=O)N[C@@H](CC(N)=O)C(=O)N[C@@H](Cc1c[nH]c2ccccc12)C(=O)N[C@@H](CC(C)C)C(=O)N[C@@H](CC(C)C)C(=O)N[C@@H](C)C(=O)N[C@@H](CCC(N)=O)C(=O)N[C@@H](CCCNC(=N)N)C(=O)N1CCC[C@H]1C(=O)N[C@@H](CO)C(=O)N[C@@H](CO)C(=O)NCC(=O)N[C@@H](C)C(=O)N1CCC[C@H]1C(=O)N1CCC[C@H]1C(=O)N1CCC[C@H]1C(=O)N[C@@H](CO)C(N)=O)C(C)C)[C@@H](C)CC [Compound 101] (H-[NMeY][Aib]EGTFISDYSI[Aib]LDR[Aib]AQ[Aib]K([AEEA-AEEA-γGlu-γGlu-C20 diacid])FVNWLLAQRPSSGAPPPS-NH2) | ≥ 60 | ≥ 15 | – | – |
| CC[C@H](C)[C@H](NC(=O)[C@H](CCCCN)NC(=O)[C@H](CC(=O)O)NC(=O)[C@H](CC(C)C)NC(=O)C(C)(C)NC(=O)[C@@H](NC(=O)[C@H](CO)NC(=O)[C@H](Cc1ccc(O)cc1)NC(=O)[C@H](CC(=O)O)NC(=O)[C@H](CO)NC(=O)[C@@H](NC(=O)[C@H](Cc1ccccc1)NC(=O)[C@@H](NC(=O)CNC(=O)[C@H](CCC(=O)O)NC(=O)C(C)(C)NC(=O)[C@@H](N)Cc1ccc(O)cc1)[C@@H](C)O)[C@@H](C)CC)[C@@H](C)CC)C(=O)N[C@@H](C)C(=O)N[C@@H](CCC(N)=O)C(=O)N[C@@H](CCC(N)=O)C(=O)N[C@@H](CCCCNC(=O)COCCOCCNC(=O)COCCOCCNC(=O)CC[C@H](NC(=O)CC[C@H](NC(=O)CCCCCCCCCCCCCCCC(=O)O)C(=O)O)C(=O)O)C(=O)N[C@@H](Cc1ccccc1)C(=O)N[C@H](C(=O)N[C@@H](CCC(=O)O)C(=O)N[C@@H](Cc1c[nH]c2ccccc12)C(=O)N[C@@H](CC(C)C)C(=O)N[C@@H](CC(C)C)C(=O)N[C@@H](C)C(=O)N[C@@H](CCC(N)=O)C(=O)N[C@@H](CCCNC(=N)N)C(=O)NCC(=O)O)C(C)C [Compound 129] (H-Y[Aib]EGTFISDYSI[Aib]LDKIAQQK([AEEA-AEEA-γGlu-γGlu-C17 diacid])FVEWLLAQRG-OH) | – | – | ≥ 15 | ≥ 30 |
| CC[C@H](C)[C@H](NC(=O)[C@H](CO)NC(=O)[C@H](Cc1ccc(O)cc1)NC(=O)[C@H](CC(=O)O)NC(=O)[C@H](CO)NC(=O)[C@@H](NC(=O)[C@H](Cc1ccccc1)NC(=O)[C@@H](NC(=O)CNC(=O)[C@H](CCC(=O)O)NC(=O)C(C)(C)NC(=O)[C@H](Cc1ccc(O)cc1)NC)[C@@H](C)O)[C@@H](C)CC)C(=O)N[C@@H](C)C(=O)N[C@@H](CC(C)C)C(=O)N[C@@H](CC(=O)O)C(=O)N[C@@H](CCCNC(=N)N)C(=O)NC(C)(C)C(=O)N[C@@H](C)C(=O)N[C@@H](CCC(N)=O)C(=O)NC(C)(C)C(=O)N[C@@H](CCCCNC(=O)CNC(=O)CNC(=O)[C@@H]1CCCN1C(=O)[C@H](C)NC(=O)[C@@H]1CCCN1C(=O)[C@H](C)NC(=O)[C@@H]1CCCN1C(=O)CC[C@H](NC(=O)CCCCCCCCCCCCCCCCC(=O)O)C(=O)O)C(=O)N[C@@H](Cc1ccccc1)C(=O)N[C@H](C(=O)N[C@@H](CC(N)=O)C(=O)N[C@@H](Cc1c[nH]c2ccccc12)C(=O)N[C@@H](CC(C)C)C(=O)N[C@@H](CC(C)C)C(=O)N[C@@H](C)C(=O)N[C@@H](CCC(N)=O)C(=O)N[C@@H](CO)C(=O)N1CCC[C@H]1C(=O)NCC(=O)O)C(C)C [Compound 117] (I: H-[NMeY][Aib]EGTFISDYSIALDR[Aib]AQ[Aib]KFVNWLLAQSPG-OH / II: {C18 diacid-γGlu}-PAPAPGG; amide I:21-II:C) | – | – | ≥ 15 | ≥ 30 |
